Data from PubChem BioAssay AID1963977 (Molecular Pharmacology Branch, DTP, NCI, 2024).
Where “and” joins values, the source holds several entries; their conditions need not be identical. Equal values may be shown once.

System: 624824-186-R-J3-PDC multicell spheroids, viability
Assay: Anticancer human tumor 624824-186-R-J3-PDC patient-derived colon adenocarcinoma cell line growth inhibition [PI3K]
Conditions: for viability, T/C: stronger effect = lower value; active = viability on the fitted dose curve at most 10% of control; inactive = the rest
Method in brief: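 Tumor cells were combined with HUVEC and MSCs into spheroids, then dosed with PI3K-inhibitor combinations over half-log ranges capped near clinical Cmax or 10 microM.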

[1] = curve of first compound, second compound 0.00316 µM
[2] = curve of first compound, second compound 0.01 µM
[3] = curve of first compound, second compound 0.0316 µM
[4] = curve of first compound, second compound 0.1 µM
[5] = curve of first compound, second compound 0.316 µM
[6] = curve of first compound, second compound 1 µM
[7] = second compound 0.00316 µM, first compound 0.0316 µM
[8] = second compound 0.00316 µM, first compound 0.1 µM
[9] = second compound 0.00316 µM, first compound 0.316 µM
[10] = second compound 0.00316 µM, first compound 1 µM
[11] = second compound 0.00316 µM, first compound 3.16 µM
[12] = second compound 0.00316 µM, first compound 10 µM
[13] = second compound 0.01 µM, first compound 0.0316 µM
[14] = second compound 0.01 µM, first compound 0.1 µM
[15] = second compound 0.01 µM, first compound 0.316 µM
[16] = second compound 0.01 µM, first compound 1 µM
[17] = second compound 0.01 µM, first compound 3.16 µM
[18] = second compound 0.01 µM, first compound 10 µM
[19] = second compound 0.0316 µM, first compound 0.0316 µM
[20] = second compound 0.0316 µM, first compound 0.1 µM
[21] = second compound 0.0316 µM, first compound 0.316 µM
[22] = second compound 0.0316 µM, first compound 1 µM
[23] = second compound 0.0316 µM, first compound 3.16 µM
[24] = second compound 0.0316 µM, first compound 10 µM
[25] = second compound 0.1 µM, first compound 0.0316 µM
[26] = second compound 0.1 µM, first compound 0.1 µM
[27] = second compound 0.1 µM, first compound 0.316 µM
[28] = second compound 0.1 µM, first compound 1 µM
[29] = second compound 0.1 µM, first compound 3.16 µM
[30] = second compound 0.1 µM, first compound 10 µM
[31] = second compound 0.316 µM, first compound 0.0316 µM
[32] = second compound 0.316 µM, first compound 0.1 µM
[33] = second compound 0.316 µM, first compound 0.316 µM
[34] = second compound 0.316 µM, first compound 1 µM
[35] = second compound 0.316 µM, first compound 3.16 µM
[36] = second compound 0.316 µM, first compound 10 µM
[37] = second compound 1 µM, first compound 0.0316 µM
[38] = second compound 1 µM, first compound 0.1 µM
[39] = second compound 1 µM, first compound 0.316 µM
[40] = second compound 1 µM, first compound 1 µM
[41] = second compound 1 µM, first compound 3.16 µM
[42] = second compound 1 µM, first compound 10 µM
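Also: spheroids exposed to agents for seven days before luminescence read.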
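For viability, T/C in this document: luminescent signal used as a stand-in for spheroid viability; percent viability relative to DMSO vehicle control wells taken as 100%.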

Cn1nccc1Nc1nccc(-c2ccn(C(CO)c3ccc(Cl)c(F)c3)c(=O)c2)n1 (stereo not drawn) + CC(Nc1ccc2c(c1)OCCn1cc(N3C(=O)OCC3C(F)F)nc1-2)C(N)=O
inactive: viability, T/C [7] 104% | viability, T/C [8] 91.1% | viability, T/C [9] 85% | viability, T/C [10] 75.9% | viability, T/C [11] 58.8% | viability, T/C [12] 48.1% | viability, T/C [13] 93.9% | viability, T/C [14] 93% | viability, T/C [15] 90% | viability, T/C [16] 65.4% | viability, T/C [17] 54.9% | viability, T/C [18] 43.9% | viability, T/C [19] 97.5% | viability, T/C [20] 107% | viability, T/C [21] 80.7% | viability, T/C [22] 68.2% | viability, T/C [23] 46.2% | viability, T/C [24] 37.2% | viability, T/C [25] 102% | viability, T/C [26] 95% | viability, T/C [27] 80.6% | viability, T/C [28] 52.2% | viability, T/C [29] 36.4% | viability, T/C [30] 24.8% | viability, T/C [31] 105% | viability, T/C [32] 95% | viability, T/C [33] 76.6% | viability, T/C [34] 31.7% | viability, T/C [35] 20.2% | viability, T/C [36] 17.4% | viability, T/C [37] 84.1% | viability, T/C [38] 81.1% | viability, T/C [39] 51.9% | viability, T/C [40] 20.5% | viability, T/C [41] 15.1% | viability, T/C [42] 15.3%
341 nM: IC50 [6]
4070 nM: IC50 [2]
1270 nM: IC50 [4]
2580 nM: IC50 [3]
8240 nM: IC50 [1]
628 nM: IC50 [5]

C[C@@H](NC(=O)c1ncnc(N)c1Cl)c1ncc(C(=O)Nc2cc(C(F)(F)F)c(Cl)cn2)s1 + COc1c(OCCCN2CCOCC2)ccc2c3n(c(=NC(=O)c4cnc(N)nc4)nc12)CCN3
< 31.6 nM: IC50 [6]
inactive: viability, T/C [7] 108% | viability, T/C [8] 114% | viability, T/C [9] 109% | viability, T/C [10] 103% | viability, T/C [11] 99% | viability, T/C [12] 85.8% | viability, T/C [13] 107% | viability, T/C [14] 97.9% | viability, T/C [15] 95.6% | viability, T/C [16] 96.2% | viability, T/C [17] 92.5% | viability, T/C [18] 80.2% | viability, T/C [19] 91.3% | viability, T/C [20] 103% | viability, T/C [21] 91.5% | viability, T/C [22] 99.1% | viability, T/C [23] 76.8% | viability, T/C [24] 52.1% | viability, T/C [25] 88.2% | viability, T/C [26] 82.1% | viability, T/C [27] 78.3% | viability, T/C [28] 76.9% | viability, T/C [29] 54.1% | viability, T/C [30] 38.5% | viability, T/C [31] 54.4% | viability, T/C [32] 60.6% | viability, T/C [33] 59.2% | viability, T/C [34] 41% | viability, T/C [35] 28.5% | viability, T/C [36] 23.1% | viability, T/C [37] 32.9% | viability, T/C [38] 31.5% | viability, T/C [39] 31% | viability, T/C [40] 25% | viability, T/C [41] 20.3% | viability, T/C [42] 14.8%
538 nM: IC50 [5]
4440 nM: IC50 [4]
> 10000 nM: IC50 [1] | IC50 [2] | IC50 [3]

Cn1cnc2c(F)c(Nc3ccc(Br)cc3Cl)c(C(=O)NOCCO)cc21
2050 nM and 1780 nM and 2370 nM: IC50 (curve of compound)
inactive: viability, T/C (compound 0.00949 µM) 97.1% and 99.4% and 96.4% | viability, T/C (compound 0.03 µM) 87.8% and 93.3% and 90.5% | viability, T/C (compound 0.0949 µM) 89.1% and 88.9% and 83.9% | viability, T/C (compound 0.3 µM) 88.5% and 82.7% and 75.8% | viability, T/C (compound 0.949 µM) 67.2% and 63.3% and 74.6% | viability, T/C (compound 3 µM) 41.4% and 38.2% and 43.1%

C=CC(=O)N1CCN(c2nc(=O)n(-c3c(C)ccnc3C(C)C)c3nc(-c4c(O)cccc4F)c(F)cc23)C(C)C1 (stereo not drawn) + CC(Nc1ncnc2nc[nH]c12)c1cc2cccc(Cl)c2c(=O)n1-c1ccccc1
inactive: viability, T/C [19] 125% | viability, T/C [20] 96.1% | viability, T/C [21] 114% | viability, T/C [22] 102% | viability, T/C [23] 113% | viability, T/C [24] 121% | viability, T/C [25] 105% | viability, T/C [26] 94.6% | viability, T/C [27] 121% | viability, T/C [28] 97.7% | viability, T/C [29] 107% | viability, T/C [30] 119% | viability, T/C [31] 96.9% | viability, T/C [32] 116% | viability, T/C [33] 100% | viability, T/C [34] 108% | viability, T/C [35] 111% | viability, T/C [36] 120% | viability, T/C [37] 106% | viability, T/C [38] 111% | viability, T/C [39] 109% | viability, T/C [40] 111% | viability, T/C [41] 127% | viability, T/C [42] 116% | viability, T/C (second compound 3.16 µM, first compound 0.0316 µM) 104% | viability, T/C (second compound 3.16 µM, first compound 0.1 µM) 107% | viability, T/C (second compound 3.16 µM, first compound 0.316 µM) 97.9% | viability, T/C (second compound 3.16 µM, first compound 1 µM) 106% | viability, T/C (second compound 3.16 µM, first compound 3.16 µM) 102% | viability, T/C (second compound 3.16 µM, first compound 10 µM) 115% | viability, T/C (second compound 10 µM, first compound 0.0316 µM) 95.3% | viability, T/C (second compound 10 µM, first compound 0.1 µM) 103% | viability, T/C (second compound 10 µM, first compound 0.316 µM) 95.5% | viability, T/C (second compound 10 µM, first compound 1 µM) 114% | viability, T/C (second compound 10 µM, first compound 3.16 µM) 99.6% | viability, T/C (second compound 10 µM, first compound 10 µM) 93.3%
> 10000 nM: IC50 [3] | IC50 [4] | IC50 [5] | IC50 [6] | IC50 (curve of first compound, second compound 3.16 µM) | IC50 (curve of first compound, second compound 10 µM)
